From ChEMBL document CHEMBL1201862, “PubChem BioAssay data set” (2004)
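Where inhibition never reached the appropriate level, the endpoint shown equals the highest concentration tested. Otherwise, values were interpolated linearly from a five-concentration, 48-hour dose response in 96-well plates. GI50 marks 50% less growth.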 Activity calls are given as the source filed them. Cut-off read from the data, not from the text of the source: active = GI50 up to about 1.1 µM and inactive = higher.

Columns and labels:
Experiment in all cases: NCI-60 cell line screen, 48 h
ACHN = tested on: ACHN
KM12 = tested on: KM12
IGROV-1 = tested on: IGROV-1
A549 = tested on: A549
LOX IMVI = tested on: LOX IMVI
UACC-257 = tested on: UACC-257
SN12C = tested on: SN12C
COLO 205 = tested on: COLO 205
DMS-273 = tested on: DMS-273
DMS-114 = tested on: DMS-114
HCT-15 = tested on: HCT-15
SNB-19 = tested on: SNB-19
OVCAR-8 = tested on: OVCAR-8
NCI-H23 = tested on: NCI-H23
Malme-3M = tested on: Malme-3M
RPMI-8226 = tested on: RPMI-8226
CCRF-CEM = tested on: CCRF-CEM
SK-MEL-5 = tested on: SK-MEL-5
OVCAR-4 = tested on: OVCAR-4
HCC 2998 = tested on: HCC 2998
SF-268 = tested on: SF-268
NCI-H226 = tested on: NCI-H226
HOP-18 = tested on: HOP-18
M14 = tested on: M14
HOP-92 = tested on: HOP-92
NCI-H460 = tested on: NCI-H460
LXFL 529 = tested on: LXFL 529
SK-MEL-2 = tested on: SK-MEL-2
U-251 = tested on: U-251
SW-620 = tested on: SW-620
RXF 393 = tested on: RXF 393
HOP-62 = tested on: HOP-62
TK-10 = tested on: TK-10
HCT-116 = tested on: HCT-116
UACC-62 = tested on: UACC-62
HL-60 = tested on: HL-60
SF-539 = tested on: SF-539
SK-MEL-28 = tested on: SK-MEL-28
SNB-78 = tested on: SNB-78
K562 = tested on: K562
UO-31 = tested on: UO-31
KM-20L2 = tested on: KM-20L2
MOLT-4 = tested on: MOLT-4
XF498 = tested on: XF498
A498 = tested on: A498
SK-OV-3 = tested on: SK-OV-3
NCI-H522 = tested on: NCI-H522
EKVX = tested on: EKVX
DLD-1 = tested on: DLD-1
HT-29 = tested on: HT-29
SF-295 = tested on: SF-295
786-0 = tested on: 786-0
OVCAR-5 = tested on: OVCAR-5
CAKI-1 = tested on: CAKI-1
M19-MEL = tested on: M19-MEL
SNB-75 = tested on: SNB-75
T47D = tested on: T47D
DU-145 = tested on: DU-145
MDA-MB-231 = tested on: MDA-MB-231
NCI/ADR-RES = tested on: NCI/ADR-RES
SR = tested on: SR
OVCAR-3 = tested on: OVCAR-3

`CN(C)/C(F)=P\C(F)(F)F` (configuration not stated) was tested, and the GI50 (ACHN) was > 100 µM (inactive), the GI50 (KM12) was > 100 µM (inactive) and the GI50 (IGROV-1) was > 100 µM (inactive). The GI50 (A549) was > 100 µM (inactive), the GI50 (LOX IMVI) was > 100 µM (inactive) and the GI50 (UACC-257) was > 100 µM (inactive). For the same compound, the GI50 (SN12C) was > 100 µM (inactive), the GI50 (COLO 205) was > 100 µM (inactive) and the GI50 (DMS-273) was > 100 µM (inactive). For the same compound, the GI50 (DMS-114) was > 100 µM (inactive), the GI50 (HCT-15) was greater than 100 µM and the GI50 (SNB-19) was > 100 µM (inactive). For the same compound, the GI50 (OVCAR-8) was > 100 µM (inactive), the GI50 (NCI-H23) was > 100 µM (inactive) and the GI50 (Malme-3M) was > 100 µM (inactive). The GI50 (RPMI-8226) was > 100 µM (inactive), the GI50 (CCRF-CEM) was > 100 µM (inactive) and the GI50 (SK-MEL-5) was > 100 µM (inactive). The GI50 (OVCAR-4) was > 100 µM (inactive), the GI50 (HCC 2998) was > 100 µM (inactive) and the GI50 (SF-268) was > 100 µM (inactive). The GI50 (NCI-H226) was > 100 µM (inactive), the GI50 (HOP-18) was > 100 µM (inactive) and the GI50 (M14) was > 100 µM (inactive). The GI50 (HOP-92) was > 100 µM (inactive), the GI50 (NCI-H460) was > 100 µM (inactive) and the GI50 (LXFL 529) was > 100 µM (inactive). The GI50 (SK-MEL-2) was > 100 µM (inactive), the GI50 (U-251) was > 100 µM (inactive) and the GI50 (SW-620) was > 100 µM (inactive). The GI50 (RXF 393) was > 100 µM (inactive), the GI50 (HOP-62) was > 100 µM (inactive) and the GI50 (TK-10) was > 100 µM (inactive). For the same compound, the GI50 (HCT-116) was > 100 µM (inactive), the GI50 (UACC-62) was > 100 µM (inactive) and the GI50 (HL-60) was > 100 µM (inactive). For the same compound, the GI50 (SF-539) was > 100 µM (inactive), the GI50 (SK-MEL-28) was > 100 µM (inactive) and the GI50 (SNB-78) was > 100 µM (inactive). For the same compound, the GI50 (K562) was > 100 µM (inactive), the GI50 (UO-31) was > 100 µM (inactive) and the GI50 (KM-20L2) was > 100 µM (inactive). For the same compound, the GI50 (MOLT-4) was > 100 µM (inactive), the GI50 (XF498) was > 100 µM (inactive) and the GI50 (A498) was > 100 µM (inactive). For the same compound, the GI50 (SK-OV-3) was > 100 µM (inactive), the GI50 (NCI-H522) was > 100 µM (inactive) and the GI50 (EKVX) was > 100 µM (inactive). The GI50 (DLD-1) was > 100 µM (inactive), the GI50 (HT-29) was > 100 µM (inactive) and the GI50 (SF-295) was > 100 µM (inactive). For the same compound, the GI50 (786-0) was > 100 µM (inactive), the GI50 (OVCAR-5) was > 100 µM (inactive) and the GI50 (CAKI-1) was > 100 µM (inactive). For the same compound, the GI50 (M19-MEL) was > 100 µM (inactive) and the GI50 (SNB-75) was > 100 µM (inactive).
`NC(CN(O)N=O)C(=O)O` (configuration not stated) was tested, and the GI50 (ACHN) was 1.85 µM (inactive), the GI50 (T47D) was 157 µM (inactive) and the GI50 (KM12) was 0.472 µM (active). For the same compound, the GI50 (DU-145) was 135 µM (inactive), the GI50 (A549) was 0.202 µM (active) and the GI50 (LOX IMVI) was 0.267 µM (active). The GI50 (MDA-MB-231) was 55.7 µM (inactive), the GI50 (DMS-273) was 0.817 µM (active) and the GI50 (DMS-114) was 0.309 µM (active). For the same compound, the GI50 (OVCAR-8) was 12.2 µM (inactive), the GI50 (Malme-3M) was 54.5 µM (inactive) and the GI50 (HOP-18) was 331 µM (inactive). The GI50 (SK-MEL-2) was 95.9 µM (inactive), the GI50 (NCI/ADR-RES) was 17.1 µM (inactive) and the GI50 (HL-60) was 9.4 µM (inactive). For the same compound, the GI50 (SF-539) was 8.57 µM (inactive), the GI50 (SNB-78) was 21.8 µM (inactive) and the GI50 (KM-20L2) was 19 µM (inactive). The GI50 (MOLT-4) was 20.1 µM (inactive), the GI50 (XF498) was 5.71 µM (inactive) and the GI50 (DLD-1) was 1.04 µM (active). For the same compound, the GI50 (HT-29) was 9.23 µM (inactive), the GI50 (SF-295) was 5.01 µM (inactive) and the GI50 (OVCAR-5) was 5.22 µM (inactive). For the same compound, the GI50 (M19-MEL) was 14.1 µM (inactive).
`CCOC(=O)N1C2C=C(C)C(ON2C(=O)c2ccccc2)C2C(C)C(=O)N21` (configuration not stated) was tested, and the GI50 (ACHN) was > 100 µM (inactive), the GI50 (KM12) was > 100 µM (inactive) and the GI50 (IGROV-1) was > 100 µM (inactive). The GI50 (A549) was > 100 µM (inactive), the GI50 (LOX IMVI) was > 100 µM (inactive) and the GI50 (UACC-257) was > 100 µM (inactive). The GI50 (SN12C) was > 100 µM (inactive), the GI50 (COLO 205) was > 100 µM (inactive) and the GI50 (DMS-273) was > 100 µM (inactive). For the same compound, the GI50 (DMS-114) was > 100 µM (inactive), the GI50 (HCT-15) was greater than 100 µM and the GI50 (SNB-19) was > 100 µM (inactive). For the same compound, the GI50 (OVCAR-8) was > 100 µM (inactive), the GI50 (NCI-H23) was > 100 µM (inactive) and the GI50 (Malme-3M) was > 100 µM (inactive). The GI50 (RPMI-8226) was > 100 µM (inactive), the GI50 (CCRF-CEM) was > 100 µM (inactive) and the GI50 (SK-MEL-5) was > 100 µM (inactive). For the same compound, the GI50 (OVCAR-4) was > 100 µM (inactive), the GI50 (HCC 2998) was > 100 µM (inactive) and the GI50 (SF-268) was > 100 µM (inactive). The GI50 (NCI-H226) was > 100 µM (inactive), the GI50 (HOP-18) was > 100 µM (inactive) and the GI50 (M14) was > 100 µM (inactive). The GI50 (HOP-92) was > 100 µM (inactive), the GI50 (NCI-H460) was > 100 µM (inactive) and the GI50 (LXFL 529) was > 100 µM (inactive). The GI50 (SK-MEL-2) was > 100 µM (inactive), the GI50 (U-251) was > 100 µM (inactive) and the GI50 (SW-620) was > 100 µM (inactive). The GI50 (RXF 393) was > 100 µM (inactive), the GI50 (HOP-62) was > 100 µM (inactive) and the GI50 (TK-10) was > 100 µM (inactive). For the same compound, the GI50 (HCT-116) was > 100 µM (inactive), the GI50 (UACC-62) was > 100 µM (inactive) and the GI50 (HL-60) was > 100 µM (inactive). The GI50 (SF-539) was > 100 µM (inactive), the GI50 (SK-MEL-28) was > 100 µM (inactive) and the GI50 (SNB-78) was > 100 µM (inactive). The GI50 (K562) was > 100 µM (inactive), the GI50 (UO-31) was > 100 µM (inactive) and the GI50 (KM-20L2) was > 100 µM (inactive). The GI50 (MOLT-4) was > 100 µM (inactive), the GI50 (XF498) was > 100 µM (inactive) and the GI50 (A498) was > 100 µM (inactive). For the same compound, the GI50 (SK-OV-3) was > 100 µM (inactive), the GI50 (EKVX) was > 100 µM (inactive) and the GI50 (DLD-1) was > 100 µM (inactive). For the same compound, the GI50 (HT-29) was > 100 µM (inactive), the GI50 (SF-295) was > 100 µM (inactive) and the GI50 (786-0) was > 100 µM (inactive). For the same compound, the GI50 (OVCAR-5) was > 100 µM (inactive), the GI50 (SR) was > 100 µM (inactive) and the GI50 (M19-MEL) was > 100 µM (inactive). For the same compound, the GI50 (OVCAR-3) was > 100 µM (inactive) and the GI50 (SNB-75) was 23.6 µM (inactive).
